target: T1, recombinant Axl tyrosine kinase (Homo sapiens, UniProt P30530); test: In vitro Axl kinase assay (AlphaScreen), Test (a); format: biochemical; conditions: test compound at 1 μM; first value quoted
T1 construct: encompassing amino acids 473 to 894 of Axl; GST (N); made in house; host or cells: SF126 insect cells
T1 sequence (P30530 473-894): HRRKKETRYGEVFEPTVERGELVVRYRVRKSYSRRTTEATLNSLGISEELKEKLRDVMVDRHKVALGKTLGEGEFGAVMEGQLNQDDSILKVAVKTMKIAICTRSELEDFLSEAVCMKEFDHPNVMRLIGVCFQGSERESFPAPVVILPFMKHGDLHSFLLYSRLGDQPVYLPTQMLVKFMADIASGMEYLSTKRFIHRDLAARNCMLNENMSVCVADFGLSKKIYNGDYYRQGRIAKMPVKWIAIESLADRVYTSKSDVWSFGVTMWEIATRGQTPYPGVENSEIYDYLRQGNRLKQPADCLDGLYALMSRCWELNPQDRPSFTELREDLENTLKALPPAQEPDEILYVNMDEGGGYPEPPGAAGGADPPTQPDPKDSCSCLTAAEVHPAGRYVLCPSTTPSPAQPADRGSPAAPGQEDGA

% Axl tyrosine kinase inhibition at 1 μM concentration | SMILES
91.9% | COCc1ccc(-c2cnc(N)c(-c3nc4ccccc4o3)c2)cc1 [Example 2.37]
95.3% | Nc1ncc(-c2cccc(C(=O)NCCN3CCCC3)c2)cc1-c1nc2cnccc2o1 [Example 8A.22]
95.6% | Nc1ncc(-c2ccc(C(=O)N3CCC(O)CC3)cc2)cc1-c1nc2cccnc2o1 [Example 9A.6]
99.0% | COc1cc(-c2cnc(N)c(-c3nc4ncccc4o3)c2)ccc1OCCCCN [Example 43C.30]
99.8% | COc1cc(-c2cnc(N)c(-c3nc4ncccc4o3)c2)ccc1OC1CCCNCC1 (stereo not drawn) [Example 43C.38]
93.3% | Nc1ncc(-c2cccc(CO)c2)cc1-c1nc2ccccc2o1 [Example 2.35]
97.0% | Nc1ncc(-c2ccc(S(=O)(=O)NCCO)cc2)cc1-c1nc2cccnc2o1 [Example 9A.14]
40.3% | Nc1ncc(-c2cccc(N3CCCCC3)c2)cc1-c1nc2ncccc2o1 [Example 10A.17]
99.9% | COc1cc(-c2cnc(N)c(-c3nc4ncccc4o3)c2)ccc1OCCC1CCCCN1C (stereo not drawn) [Example 43C.13]
98.9% | CC(=O)NCC(=O)N1CCC(n2cc(-c3cnc(N)c(-c4nc5ncccc5o4)c3)cn2)CC1 [Example 59.3]
99.0% | Nc1ncc(-c2ccc(OCC3CCCNC3)cc2)cc1-c1nc2ncccc2o1 (stereo not drawn) [Example 43B.41]
92.9% | CN(C)C1CCN(C(=O)c2ccc(-c3cnc(N)c(-c4nc5cccnc5o4)c3)cc2)CC1 [Example 45A.1]
87.2% | Nc1ncc(-c2ccc3[nH]ncc3c2)cc1-c1nc2ccccc2o1 [Example 2.23]
99.9% | CN(C)CCNC(=O)c1ccc(-c2cnc(N)c(-c3nc4ccccc4o3)c2)cc1 [Example 2.41]
99.8% | CN(C)CCCNC(=O)c1ccc(-c2cnc(N)c(-c3nc4cnccc4o3)c2)cc1 [Example 8A.17]
98.4% | Nc1ncc(-c2ccc(C(=O)NCCCN3CC[C@@H](F)C3)cc2)cc1-c1nc2cccnc2o1 [Example 45A.39]
98.4% | CN(C)CCn1cc(-c2cnc(N)c(-c3nc4ccccc4o3)c2)cn1 [Example 27.5]
99.7% | COCCOCC(=O)N1CCC(n2cc(-c3cnc(N)c(-c4nc5ncccc5o4)c3)cn2)CC1 [Example 59.5]
97.7% | NCC1CCN(C(=O)c2ccc(-c3cnc(N)c(-c4nc5cccnc5o4)c3)cc2)CC1 [Example 45A.78]
96.8% | CN1CCCCC1CCOc1ccc(-c2cnc(N)c(-c3nc4ncccc4o3)c2)cc1 (stereo not drawn) [Example 43B.13]
99.1% | Nc1ncc(-c2cnn(CC3CNC3)c2)cc1-c1nc2ccccc2o1 [Example 29.4]
95.3% | Nc1ncc(-c2ccc(OCC#CCN3CCS(=O)(=O)CC3)cc2)cc1-c1nc2ncccc2o1 [Example 43B.23]
96.9% | CN(C)c1cccc(-c2cnc(N)c(-c3nc4ccccc4o3)n2)c1 [Example 20.15]
22.4% | Nc1ncc(-c2cccc(N3CCCC3)c2)cc1-c1nc2ccccc2o1 [Example 2.32]

% Axl tyrosine kinase inhibition at 1 μM concentration | SMILES
98.1% | CN1CCC(Oc2ccc(-c3cnc(N)c(-c4nc5ncccc5o4)c3)cc2)CC1 [Example 43B.11]
96.5% | CN(C)CCNC(=O)c1cccc(-c2cnc(N)c(-c3nc4ccccc4o3)c2)c1 [Example 2.8]
97.1% | CS(=O)(=O)c1cccc(-c2cnc(N)c(-c3nc4ccccc4o3)c2)c1 [Example 2.48]
96.9% | CN(C)CCOc1ccc(-c2cnc(N)c(-c3nc4ncccc4o3)c2)cc1 [Example 43B.2]
98.1% | COc1cc(-c2cnc(N)c(-c3nc4ncccc4o3)c2)ccc1OCCCN1CCS(=O)(=O)CC1 [Example 43C.16]
96.1% | CN1CCN(C(=O)c2ccc(-c3cnc(N)c(-c4nc5ncccc5o4)c3)cc2)CC1 [Example 45B.2]
94.2% | Nc1ncc(-c2ccc(C(=O)N3CCCC3CN3CCOCC3)cc2)cc1-c1nc2cccnc2o1 (stereo not drawn) [Example 45A.16]
99.5% | CN1CCC(n2cc(-c3cnc(N)c(-c4nc5c(F)cccc5o4)c3)c(C(=O)N(C)C)n2)CC1 [Example 41.37]
39.6% | CNS(=O)(=O)c1cccc(-c2cnc(N)c(-c3nc4ccncc4o3)c2)c1 [Example 11A.8]
99.3% | CC(C)N1CCC(CN(C)C(=O)c2ccc(-c3cnc(N)c(-c4nc5cccnc5o4)c3)cc2)C1 (stereo not drawn) [Example 45A.42]
99.1% | Nc1ncc(-c2ccc(C(=O)NCCCN3CCNCC3)cc2)cc1-c1nc2cccnc2o1 [Example 45A.101]
98.8% | COCc1cccc(-c2cnc(N)c(-c3nc4ccccc4o3)n2)c1 [Example 20.17]
98.3% | CN1CCC(n2cc(-c3cnc(N)c(-c4nc5ccc(F)c(F)c5o4)c3)cn2)CC1 [Example 41.16]
95.3% | Nc1ncc(-c2cccc(CN3CCCCC3)c2)cc1-c1nc2cccnc2o1 [Example 9A.9]
95.9% | CN1CCC(N(C)C(=O)c2ccc(-c3cnc(N)c(-c4nc5cccnc5o4)c3)cc2)CC1 [Example 45A.31]
98.9% | Nc1ncc(-c2ccc(C(=O)NCCN3CCCCC3)cc2)cc1-c1nc2cccnc2o1 [Example 45A.56]
89.9% | CN(C)CCC1CCN(C(=O)c2ccc(-c3cnc(N)c(-c4nc5cccnc5o4)c3)cc2)CC1 [Example 45A.14]
99.8% | Nc1ncc(-c2cnn(C3CCN(C(=O)CO)CC3)c2)cc1-c1nc2cccnc2o1 [Example 57.6]
94.3% | CN1CCN(C(=O)c2cccc(-c3cnc(N)c(-c4nc5cnccc5o4)c3)c2)CC1 [Example 8A.19]
93.6% | Nc1ncc(-c2ccc(OCCN3CCNCC3)cc2)cc1-c1nc2ncccc2o1 [Example 43B.29]
98.1% | CN1CCC(n2cc(-c3cnc(N)c(-c4nc5cc(C(F)(F)F)ccc5o4)c3)cn2)CC1 [Example 7.11]
99.7% | NCC[C@H]1CCCN(C(=O)c2ccc(-c3cnc(N)c(-c4nc5cccnc5o4)c3)cc2)C1 [Example 45A.92]
98.8% | CN(CCN1CCCC1)C(=O)c1ccc(-c2cnc(N)c(-c3nc4cccnc4o3)c2)cc1 [Example 45A.70]
98.3% | Nc1ncc(-c2ccc(C(=O)NCCCN3CC[C@H](F)C3)cc2)cc1-c1nc2cccnc2o1 [Example 45A.40]

same assay, conditions: test compound at 1 μM; first value quoted; read-out: % Axl tyrosine kinase inhibition at 1 μM concentration

inhibition at 1 µM | SMILES
99.3% | CN1CCC(n2cc(-c3cnc(N)c(-c4nc5ccccc5o4)n3)cn2)CC1 [Example 18, 3-(1,3-benzoxazol-2-yl)-5-[1-(1-methyl-4-piperidyl)pyrazol-4-yl]pyrazin-2-amine]
93.5% | CCNS(=O)(=O)c1cccc(-c2cnc(N)c(-c3nc4ccccc4o3)c2)c1 [Example 48, 3-[6-Amino-5-(1,3-benzoxazol-2-yl)-3-pyridyl]-N-ethyl-benzenesulphonamide]
99.6% | Nc1ncc(-c2cnn(C3CCNCC3)c2)nc1-c1nc2ccccc2o1 [Example 17, 3-(1,3-Benzoxazol-2-yl)-5-[1-(4-piperidyl)pyrazol-4-yl]pyrazin-2-amine]
98.4% | Nc1ncc(-c2cnn(C3CCNCC3)c2)cc1-c1nc2ncc(F)cc2o1 [Example 37, 3-(6-fluorooxazolo[4,5-b]pyridin-2-yl)-5-[1-(4-piperidyl)pyrazol-4-yl]pyridin-2-amine]
99.9% | Cc1nn(C2CCNCC2)cc1-c1cnc(N)c(-c2nc3ccccc3o2)n1 [Example 20.20, 3-(1,3-benzoxazol-2-yl)-5-[3-methyl-1-(4-piperidyl)pyrazol-4-yl]pyrazin-2-amine]
98.4% | CN(C)CCNC(=O)c1ccc(-c2cnc(N)c(-c3nc4ncccc4o3)c2)cc1 [Example 10A.15, 4-(6-amino-5-oxazolo[4,5-b]pyridin-2-yl-3-pyridyl)-N-(2-dimethylaminoethyl)benzamide]
99.5% | COc1cc(N2CCN(C)CC2)ccc1-c1cnc(N)c(-c2nc3ncccc3o2)c1 [Example 25.6, 5-[2-methoxy-4-(4-methylpiperazin-1-yl)phenyl]-3-oxazolo[4,5-b]pyridin-2-yl-pyridin-2-amine]
99.9% | Nc1ncc(-c2cnn(C3CCNCC3)c2CO)cc1-c1nc2ccccc2o1 [Example 61, [4-[6-amino-5-(1,3-benzoxazol-2-yl)-3-pyridyl]-2-(4-piperidyl)pyrazol-3-yl]methanol]
98.8% | Nc1ncc(-c2cnn(C3CCNCC3)c2)cc1-c1nc2cccnc2o1 [Example 9, 3-Oxazolo[5,4-b]pyridin-2-yl-5-[1-(4-piperidyl)pyrazol-4-yl]pyridin-2-amine]

Source: patent US8017611B2, “Pyridine and pyrazine derivatives -083” (AstraZeneca AB, priority 2007, dated 2011)
